Seven molecules from ChEMBL document CHEMBL1152841, “Conformationally constrained analogues of N'-(4-tert-butylbenzyl)-N-(4-methylsulfonylaminobenzyl)thiourea as TRPV1 antagonists” (Eur J Med Chem, 2009) can be followed below.

Assay [1] deals with T1, Transient receptor potential cation channel subfamily V member 1 (Rattus norvegicus, UniProt O35433). Put plainly: Displacement of [3H]resiniferatoxin from rat TRPV1 expressed in CHO cells by scintillation counting. It is filed as cell-based. A general note: In a radioligand displacement assay an active substance lowers the binding of a labelled ligand.
For assay [2], the target named is T1, Transient receptor potential cation channel subfamily V member 1. Kind of assay: Antagonist activity at rat TRPV1 expressed in CHO cells assessed as capsaicin-stimulated 45Ca2+ uptake. The format is functional, cell-based.
Assay [3] has the same target. Put plainly: Agonist activity at rat TRPV1 expressed in CHO cells by 45Ca2+ uptake assay. The format is functional, cell-based.
Assay [4] has as its target Transient receptor potential cation channel subfamily V member 1 (Rattus norvegicus) (UniProt O35433). Kind of assay: Agonist activity at rat TRPV1 expressed in CHO cells by 45Ca2+ uptake assay relative to capsaicin. The format is functional, cell-based.

One may read the Ki as the equilibrium dissociation constant of an inhibitor or competing ligand from its target. By EC50 is commonly meant the concentration at which the effect is half-maximal. A high value points to a less potent agent.

T1 sequence (O35433 whole entry): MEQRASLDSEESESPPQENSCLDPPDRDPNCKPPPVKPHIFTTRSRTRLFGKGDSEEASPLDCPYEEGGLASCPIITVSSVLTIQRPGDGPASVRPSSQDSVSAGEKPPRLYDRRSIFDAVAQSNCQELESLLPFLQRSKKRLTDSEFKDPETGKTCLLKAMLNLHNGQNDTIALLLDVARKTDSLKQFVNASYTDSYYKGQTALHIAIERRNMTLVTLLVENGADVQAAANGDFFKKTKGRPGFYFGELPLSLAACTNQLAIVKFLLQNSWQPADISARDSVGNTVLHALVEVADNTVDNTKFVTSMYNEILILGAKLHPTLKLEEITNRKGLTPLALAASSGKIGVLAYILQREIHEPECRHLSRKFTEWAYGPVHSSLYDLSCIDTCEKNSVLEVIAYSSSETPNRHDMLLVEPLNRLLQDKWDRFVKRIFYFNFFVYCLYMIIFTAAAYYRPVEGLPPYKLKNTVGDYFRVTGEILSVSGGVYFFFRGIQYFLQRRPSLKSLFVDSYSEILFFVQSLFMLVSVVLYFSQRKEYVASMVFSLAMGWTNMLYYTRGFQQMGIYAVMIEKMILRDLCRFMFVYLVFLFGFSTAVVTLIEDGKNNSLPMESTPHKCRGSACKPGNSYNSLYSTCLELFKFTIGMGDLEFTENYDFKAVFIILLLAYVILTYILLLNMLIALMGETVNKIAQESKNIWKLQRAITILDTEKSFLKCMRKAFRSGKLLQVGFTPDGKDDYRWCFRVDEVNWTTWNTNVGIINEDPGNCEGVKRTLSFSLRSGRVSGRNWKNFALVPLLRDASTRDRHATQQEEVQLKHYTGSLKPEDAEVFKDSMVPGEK
Sequence of Transient receptor potential cation channel subfamily V member 1 (Rattus norvegicus) (O35433 whole entry): as above

As for `CC(C)(C)c1ccc(CNC(=S)NC2CCc3cc(NS(C)(=O)=O)ccc32)cc1` (centres undefined), the values for the Ki in assay [1] and in assay [2] were 0.66 µM and 0.74 µM, respectively.
For `COc1cc2c(cc1NS(C)(=O)=O)CCC2NC(=S)NCc1ccc(C(C)(C)C)cc1` (centres undefined), the inhibitory constant (Ki) in assay [1] came to 3.37 µM; in assay [2] it was 25 µM.
In the same order, the values of `COc1c(NS(C)(=O)=O)ccc2c1CCC2NC(=S)NCc1ccc(C(C)(C)C)cc1` (centres undefined) are 1.82 µM and 1.69 µM.
Taken in the same sequence, the figures for `COc1c(NS(C)(=O)=O)ccc2c1CCCC2NC(=S)NCc1ccc(C(C)(C)C)cc1` (centres undefined) were 1.75 µM and 4.7 µM.
For the molecule `COc1cc(CNC(=S)NCc2ccc(C(C)(C)C)cc2)ccc1NS(C)(=O)=O`, the EC50 in assay [3] stood at 0.0324 µM. Besides, in assay [4], the Activity stood at 17%.
`COc1cc2c(cc1NS(C)(=O)=O)CCCC2NC(=S)NCc1ccc(C(C)(C)C)cc1` (centres undefined) gave an Activity in assay [4] of 14%. This molecule also yielded a Ki in assay [1] of 6.9 µM.
For `CC(C)(C)c1ccc(CNC(=S)NC2CCCc3cc(NS(C)(=O)=O)ccc32)cc1` (centres undefined), the inhibitory constant (Ki) amounted to 1.59 µM in assay [1] and 2.64 µM in assay [2].
